US20260256792A1, “TREATMENT OF CHRONIC SPONTANEOUS URTICARIA BY ADMINISTERING (R)-2-[3-[4-AMINO-3-(2-FLUORO-4-PHENOXY-PHENYL)PYRAZOLO[3,4-D]PYRIMIDIN-1-YL]PIPERIDINE-1-CARBONYL]-4-METHYL-4-[4-(OXETAN-3-YL)PIPERAZIN-1-YL]PENT-2-ENENITRILE” (priority 2023, published 2026)

System: moderate-to-severe chronic spontaneous urticaria (CSU)
Experiment: Phase 2 CSU study: urticaria activity score over 7 days (UAS7)
Assay type: in vivo, human
Conditions: Omalizumab-Naïve
Excerpt: The study comprises a 12 week, randomized, double-blind, placebo-controlled, multi-center, dose-ranging efficacy and safety phase, followed by a 40 week open label extension (OLE) phase (see FIG. 1). The study consists of three phases and an optional OLE phase. […] Clinically, CSU is characterized by the spontaneous and recurrent appearance of pruritic hives. The proposed primary endpoints were the UAS7 at Week 12 in EU and EU reference countries and the ISS7 in the US. Regardless of where a participant was from, all assessments were the same. The UAS7 score is a composite score containing both the HSS7 and the ISS7. This allowed a global assessment of the two key components of urticaria: hives and itch. […] The UAS is a validated PRO measure. […] The daily UAS scores range from 0 to 6 point/day. […] Patients were to complete the UAS using the e-diary. […] The following secondary endpoints were to be analyzed using the same approach as for the primary endpoint: • Change from baseline in UAS7 at Week 4 • Change from baseline in UAS7 at Week 12 (for US and US reference countries) • Change from baseline in ISS7 at Week 12 (except US and US reference countries) • Change from baseline in HSS7 at Week 12 The following responder secondary endpoints were to be analyzed using the Cochran-Mantel-Haenszel test adjusted by region: • Proportion of participants with UAS7<6 at Week 12 • Proportion of participants with UAS7=0 at Week 12 Participants who received selected prohibited medications and/or rescue medications were to be considered as non-responders for time points after the medication usage. For other participants, all available data including those collected during the off-treatment period were to be used to determine the responder/non-responder status. Missing data were to be considered as non-responders.

[1] = Baseline Eosinophils (10^9/L) ≥0.3, 400 mg BID
[2] = Baseline Eosinophils (10^9/L) ≥0.3, 400 mg QPM
[3] = Baseline Eosinophils (10^9/L) ≥0.3, 400 mg TID
[4] = Baseline H1-antihistamines dose 1-fold, 400 mg BID
[5] = Baseline H1-antihistamines dose 1-fold, 400 mg QPM
[6] = Baseline H1-antihistamines dose 1-fold, 400 mg TID
[7] = Baseline H1-antihistamines dose 2 to 4-fold standard dose, 400 mg BID
[8] = Baseline H1-antihistamines dose 2 to 4-fold standard dose, 400 mg QPM
[9] = Baseline H1-antihistamines dose 2 to 4-fold standard dose, 400 mg TID
[10] = Baseline ISS7 score <13, 400 mg BID
[11] = Baseline ISS7 score <13, 400 mg QPM
[12] = Baseline ISS7 score <13, 400 mg TID
[13] = Baseline ISS7 score ≥13, 400 mg BID
[14] = Baseline ISS7 score ≥13, 400 mg QPM
[15] = Baseline ISS7 score ≥13, 400 mg TID
[16] = Baseline Total IgE (IU/mL) <100, 400 mg BID
[17] = Baseline Total IgE (IU/mL) <100, 400 mg QPM
[18] = Baseline Total IgE (IU/mL) <100, 400 mg TID
[19] = Baseline Total IgE (IU/mL) <300, 400 mg BID
[20] = Baseline Total IgE (IU/mL) <300, 400 mg QPM
[21] = Baseline Total IgE (IU/mL) <300, 400 mg TID
[22] = Baseline Total IgE (IU/mL) ≥100, 400 mg BID
[23] = Baseline Total IgE (IU/mL) ≥100, 400 mg QPM
[24] = Baseline Total IgE (IU/mL) ≥100, 400 mg TID

CC(C)(C=C(C#N)C(=O)N1CCC[C@@H](n2nc(-c3ccc(Oc4ccccc4)cc3F)c3c(N)ncnc32)C1)N1CCN(C2COC2)CC1 [rilzabrutinib, (R)-2-[3-[4-amino-3-(2-fluoro-4-phenoxy-phenyl)pyrazolo[3,4-d]pyrimidin-1-yl]piperidine-1-carbonyl]-4-methyl-4-[4-(oxetan-3-yl)piperazin-1-yl]pent-2-enenitrile]
Change from Baseline in UAS7 at Week 12: Mean (SD) (Baseline Eosinophils (10^9/L) ≥0.165 (Median), 400 mg TID): −16.50 (9.30)
Change from Baseline in UAS7 at Week 12: LS Mean Diff vs. placebo (95% CI) [1]: −3.40 (−16.66, 9.86)
Change from Baseline in UAS7 at Week 12: Mean (SD) [1]: −13.11 (12.32)
Change from Baseline in UAS7 at Week 12: LS Mean (SE) [2]: −9.66 (4.84)
Change from Baseline in UAS7 at Week 12: LS Mean Diff vs. placebo (95% CI) [2]: −2.00 (−16.22, 12.21)
Change from Baseline in UAS7 at Week 12: Mean (SD) [2]: −9.69 (12.55)
Change from Baseline in UAS7 at Week 12: LS Mean (SE) [3]: −13.16 (4.09)
Change from Baseline in UAS7 at Week 12: LS Mean Diff vs. placebo (95% CI) [3]: −5.51 (−18.58, 7.57)
Change from Baseline in UAS7 at Week 12: Mean (SD) [3]: −14.65 (7.48)
Change from Baseline in UAS7 at Week 12: LS Mean (SE) [4]: −15.75 (3.11)
Change from Baseline in UAS7 at Week 12: LS Mean Diff vs. placebo (95% CI) [4]: −3.48 (−11.69, 4.73)
Change from Baseline in UAS7 at Week 12: Mean (SD) [4]: −18.22 (14.88)
Change from Baseline in UAS7 at Week 12: LS Mean (SE) [5]: −7.64 (2.73)
Change from Baseline in UAS7 at Week 12: LS Mean Diff vs. placebo (95% CI) [5]: 4.64 (−2.96, 12.23)
Change from Baseline in UAS7 at Week 12: Mean (SD) [5]: −8.61 (9.50)
Change from Baseline in UAS7 at Week 12: LS Mean (SE) [6]: −14.92 (2.59)
Change from Baseline in UAS7 at Week 12: LS Mean Diff vs. placebo (95% CI) [6]: −2.65 (−10.05, 4.76)
Change from Baseline in UAS7 at Week 12: LS Mean (SE) [7]: −12.98 (2.55)
Change from Baseline in UAS7 at Week 12: LS Mean Diff vs. placebo (95% CI) [7]: −6.42 (−13.94, 1.10)
Change from Baseline in UAS7 at Week 12: LS Mean (SE) [8]: −10.93 (2.77)
Change from Baseline in UAS7 at Week 12: LS Mean Diff vs. placebo (95% CI) [8]: −4.37 (−12.30, 3.56)
Change from Baseline in UAS7 at Week 12: Mean (SD) [8]: −12.81 (9.00)
Change from Baseline in UAS7 at Week 12: LS Mean (SE) [9]: −20.96 (3.15)
Change from Baseline in UAS7 at Week 12: LS Mean Diff vs. placebo (95% CI) [9]: −14.41 (−22.75, −6.07)
Change from Baseline in UAS7 at Week 12: Mean (SD) [9]: −24.73 (10.10)
Change from Baseline in UAS7 at Week 12: LS Mean (SE) [10]: −9.30 (4.02)
Change from Baseline in UAS7 at Week 12: LS Mean Diff vs. placebo (95% CI) [10]: −4.39 (−14.52, 5.74)
Change from Baseline in UAS7 at Week 12: Mean (SD) [10]: −10.78 (8.33)
Change from Baseline in UAS7 at Week 12: LS Mean (SE) [11]: −3.27 (5.21)
Change from Baseline in UAS7 at Week 12: LS Mean Diff vs. placebo (95% CI) [11]: 1.64 (−10.30, 13.58)
Change from Baseline in UAS7 at Week 12: Mean (SD) [11]: −5.83 (3.06)
Change from Baseline in UAS7 at Week 12: LS Mean (SE) [12]: 9.24 (6.48)
Change from Baseline in UAS7 at Week 12: LS Mean Diff vs. placebo (95% CI) [12]: −4.33 (−18.30, 9.63)
Change from Baseline in UAS7 at Week 12: Mean (SD) [12]: −10.75 (6.01)
Change from Baseline in UAS7 at Week 12: LS Mean (SE) [13]: −15.07 (2.33)
Change from Baseline in UAS7 at Week 12: LS Mean Diff vs. placebo (95% CI) [13]: −4.32 (−10.91, 2.27)
Change from Baseline in UAS7 at Week 12: Mean (SD) [13]: −15.60 (12.97)
Change from Baseline in UAS7 at Week 12: LS Mean Diff vs. placebo (95% CI) [14]: 0.28 (−6.08, 6.64)
Change from Baseline in UAS7 at Week 12: Mean (SD) [14]: −10.91 (9.59)
Change from Baseline in UAS7 at Week 12: LS Mean (SE) [15]: −18.70 (2.15)
Change from Baseline in UAS7 at Week 12: LS Mean Diff vs. placebo (95% CI) [15]: −7.95 (−14.32, −1.57)
Change from Baseline in UAS7 at Week 12: LS Mean (SE) [16]: −15.72 (3.24)
Change from Baseline in UAS7 at Week 12: LS Mean Diff vs. placebo (95% CI) [16]: −8.43 (−17.18, 0.33)
Change from Baseline in UAS7 at Week 12: Mean (SD) [16]: −16.26 (11.38)
Change from Baseline in UAS7 at Week 12: LS Mean (SE) [17]: 8.49 (3.25)
Change from Baseline in UAS7 at Week 12: LS Mean Diff vs. placebo (95% CI) [17]: −1.19 (−10.05, 7.67)
Change from Baseline in UAS7 at Week 12: LS Mean (SE) [18]: −17.40 (3.01)
Change from Baseline in UAS7 at Week 12: LS Mean Diff vs. placebo (95% CI) [18]: −10.10 (−18.54, −1.65)
Change from Baseline in UAS7 at Week 12: Mean (SD) [18]: −21.03 (13.37)
Change from Baseline in UAS7 at Week 12: LS Mean (SE) [19]: −14.78 (2.46)
Change from Baseline in UAS7 at Week 12: LS Mean Diff vs. placebo (95% CI) [19]: −6.72 (−13.41, −0.03)
Change from Baseline in UAS7 at Week 12: Mean (SD) [19]: 15.35 (12.23)
Change from Baseline in UAS7 at Week 12: LS Mean (SE) [20]: −9.07 (2.38)
Change from Baseline in UAS7 at Week 12: LS Mean Diff vs. placebo (95% CI) [20]: −1.01 (−7.60, 5.59)
Change from Baseline in UAS7 at Week 12: Mean (SD) [20]: −10.61 (9.62)
Change from Baseline in UAS7 at Week 12: LS Mean (SE) [21]: −18.19 (2.47)
Change from Baseline in UAS7 at Week 12: LS Mean Diff vs. placebo (95% CI) [21]: −10.13 (−16.83, −3.44)
Change from Baseline in UAS7 at Week 12: Mean (SD) [21]: −20.66 (12.39)
Change from Baseline in UAS7 at Week 12: LS Mean (SE) [22]: −13.17 (2.55)
Change from Baseline in UAS7 at Week 12: LS Mean Diff vs. placebo (95% CI) [22]: −1.67 (−8.84, 5.51)
Change from Baseline in UAS7 at Week 12: Mean (SD) [22]: −13.19 (12.80)
Change from Baseline in UAS7 at Week 12: LS Mean (SE) [23]: −8.97 (2.49)
Change from Baseline in UAS7 at Week 12: LS Mean Diff vs. placebo (95% CI) [23]: 2.53 (−4.52, 9.59)
Change from Baseline in UAS7 at Week 12: Mean (SD) [23]: −9.90 (9.51)
Change from Baseline in UAS7 at Week 12: LS Mean (SE) [24]: −17.08 (2.69)
Change from Baseline in UAS7 at Week 12: LS Mean Diff vs. placebo (95% CI) [24]: −5.57 (−12.83, 1.69)
